Experimental data: patent EP2135864A1, “5-(4-methanesulfonyl-phenyl)-thiazole derivatives for the treatment of acute and chronic inflammatory diseases” (FAES FARMA, S.A., priority 2008, dated 2009)

Key:
Assay type in all cases: cell-based, human
IL-10 [1] = assay: IL-10 production by PBMC from healthy volunteers, CBA; details: 24 hours, mean ± standard error, n=13
Procedure: (§1) CBA protocol was followed according to the manufacturer's instructions. The election of microparticles was performed following the summary of Figure 1.
(§2) The acquisition on samples was performed with the BD FACS Array Bioanalyser System (FACSArray, Becton Dickinson, San José, CA, USA) and the analysis of the results was completed with the software FCAP Array (Becton Dickinson) in a PC computer.
(§3) Briefly, the experimental protocol consisted of a plate pre-washing out with Wash Buffer. After decantation, the mixture of capture microparticles was re-suspended in the vortex. Standards and samples were added in the adequate dilution. After permanent stirring incubation during 1 h, the PE detection reagent was added and incubated again during 2h at room temperature. After a washing-out, the acquisition was performed in the flow cytometer. Table 3. -Kit CBA Human Soluble Protein Multiplex Flex Set System.
The effects of compound 12 on IL-10 production by the PBMC from healthy volunteers and patients with rheumatoid arthritis were investigated in the presence and absence of LPS stimulation and with the combination of monoclonal antibodies anti-CD3 and anti-CD28. PBMC (5 x 10^4 cells per well) from 13 healthy volunteers were cultured in duplicate 200 µl of complete medium supplemented with the highest solvent concentration (10^-6 M), and 10^-6 M, 10^-7 M and 10^-8 M of compound 12, in the presence and absence of either LPS (10 µg/ml) or anti-CD3 (12.5 ng/ml), + anti-CD28 (1/3x10^5), during 24 hours.
(§4) On the other hand, PBMC (5 x 10^4 cells per well) from 8 patients with rheumatoid arthritis were cultured in duplicate in 200 µl of complete medium supplemented with the highest solvent concentration (10^-6 M), and 10^-6 M, 10^-7 M and 10^-8 M of compound 12 in the presence and absence of either LPS (10 µg/ml) or anti-CD3 (12.5 ng/ml), + anti-CD28 (1/3x10^5), during 24 hours. Culture supernatants were frozen at -20°C and IL-10 concentration was assayed by BD FACS Array Bioanalyser by using CBA Flex Set, specific to determine IL-10 concentration, following the manufacturer instructions.

CD62L = assay: Shedding of CD62L in lymphocytes of PBMC, flow cytometry; details: lymphocytes of PBMC from healthy volunteers, mean ± standard error, n=10, vehicle 112.68±13.57
Procedure: Direct immuno-fluorescence techniques of one colour with monoclonal antibodies phycoerythrin-labeled (PE) was used. PE is a fluorescent substance excitable with a 488 nm laser, which emits at 570 nm, and it is detectable and easily distinguishable by a flow cytometer. By using the antibody described in Table 1, a direct labelling was performed: PBMC labelling: the process consisted in a labelling using 96 well V bottom plates. In each well, 5 x 10^4 cells are located, and afterwards centrifugated at 400 xg during 5 minutes. After washing-out, cells are re-suspended and 5 µl of the corresponding monoclonal antibody are added. Cells are again re-suspended and the plate is incubated in darkness, during 20 minutes, at 4°C. Subsequently, 150 µl PBS are added and two wash-outs are performed. Finally, it is re-suspended in 150 µl PBS and collected in a cytometer tube, adding PBS up to a final volume of 0.3 ml. For the counting, a FACSCalibur flow cytometer equipped with argon laser tuned at 488 nm was used in order to induce phycoerythrin fluorescence. The equipment, apart from the fluorescence channels, also provided information about the size (FSC) and cellular complexity (SSC). […]
Table 14. -Mean fluorescence intensity of surface CD62L expression in lymphocytes. p values correspond to data with respect to the vehicle for each experimental condition.

IL-8 = IL-8 production by PBMC from patients with rheumatoid arthritis, CBA; details: 24 hours, mean ± standard error, n=8
Procedure: as §1, §2, §3
The effect on IL-8 production by PBMC from patients with rheumatoid arthritis was also studied. PBMC (5 x 10^4 cells per well) from 8 patients with rheumatoid arthritis were cultured in duplicate in 200 µl of complete medium supplemented with the highest solvent concentration (10^-6 M), and 10^-6 M, 10^-7 M and 10^-8 M of compound 12, in the presence and in the absence of either LPS (10 µg/ml) or anti-CD3 (12.5 ng/ml) + anti-CD28 (1/3x10^5), during 24 hours. Culture supernatants were frozen at -20°C and IL-8 concentration was quantified by BD FACS Array Bioanalyser by using CBA Flex Set, specific to determine IL-8 concentration, following the manufacturer instructions.

IL-10 [2] = assay: IL-10 production by PBMC from patients with rheumatoid arthritis, CBA; details: 24 hours, mean ± standard error, n=8
Procedure: as §1, §2, §3, §4

Cc1nc(OC2CCCC2)c(-c2ccc(S(C)(=O)=O)cc2)s1 [compound 12, 4-cyclopentyloxy-5-(4-methylsulfonyl-phenyl)-2-methylthiazole]
IL-10 production by PMBC from healthy volunteers (IL-10 [1]; LPS (10µg/ml), 10^-6 M, vehicle 2342.20±384.02, p 0.507): 2420.68±455.50 (0.507) pg/mL
IL-10 production by PMBC from healthy volunteers (IL-10 [1]; LPS (10µg/ml), 10^-7 M, vehicle 2342.20±384.02, p 0.507): 2392.99±427.86 (0.507) pg/mL
IL-10 production by PMBC from healthy volunteers (IL-10 [1]; LPS (10µg/ml), 10^-8 M, vehicle 2342.20±384.02, p 0.701): 2389.63±366.01 (0.701) pg/mL
IL-10 production by PMBC from healthy volunteers (IL-10 [1]; anti-CD3 (12.5 ng/ml) + anti-CD28 (1/3x10^5), 10^-6 M, vehicle 1042.64±162.36, p 0.507): 1239.47±251.24 (0.507) pg/mL
IL-10 production by PMBC from healthy volunteers (IL-10 [1]; anti-CD3 (12.5 ng/ml) + anti-CD28 (1/3x10^5), 10^-7 M, vehicle 1042.64±162.36, p 0.382): 1132.69±213.32 (0.382) pg/mL
IL-10 production by PMBC from healthy volunteers (IL-10 [1]; anti-CD3 (12.5 ng/ml) + anti-CD28 (1/3x10^5), 10^-8 M, vehicle 1042.64±162.36, p 0.507): 1122.51±211.03 (0.507) pg/mL
IL-10 production by PMBC from healthy volunteers (IL-10 [1]; medium, 10^-6 M, vehicle 490.46±87.16, p 0.753): 559.06±112.20 (0.753) pg/mL
IL-10 production by PMBC from healthy volunteers (IL-10 [1]; medium, 10^-7 M, vehicle 490.46±87.16, p 0.701): 609.10±108.74 (0.701) pg/mL
IL-10 production by PMBC from healthy volunteers (IL-10 [1]; medium, 10^-8 M, vehicle 490.46±87.16, p 0.861): 578.66±106.20 (0.861) pg/mL
Mean fluorescence intensity of surface CD62L expression in lymphocytes (MFI) (CD62L; 10^-6 M, p 0.47 as printed): 90.01±8.93 (0.47)
Mean fluorescence intensity of surface CD62L expression in lymphocytes (MFI) (CD62L; 10^-7 M, p 0.333): 116.90±11.02 (0.333)
IL-8 production in PMBC from patients with rheumatoid arthritis (IL-8; LPS (10µg/ml), 10^-6 M, vehicle 150759.65±22966.06, p 0.012): 185536.78±22000.00 (0.012) pg/mL
IL-8 production in PMBC from patients with rheumatoid arthritis (IL-8; LPS (10µg/ml), 10^-7 M, vehicle 150759.65±22966.06, p 0.208): 174156.23±13385.66 (0.208) pg/mL
IL-8 production in PMBC from patients with rheumatoid arthritis (IL-8; LPS (10µg/ml), 10^-8 M, vehicle 150759.65±22966.06, p 0.012): 184541.37±21500.00 (0.012) pg/mL
IL-8 production in PMBC from patients with rheumatoid arthritis (IL-8; anti-CD3 (12.5 ng/ml) + anti-CD28 (1/3x10^5), 10^-6 M, vehicle 118017.97±21116.00, p 0.263): 124576.09±14605.02 (0.263) pg/mL
IL-8 production in PMBC from patients with rheumatoid arthritis (IL-8; anti-CD3 (12.5 ng/ml) + anti-CD28 (1/3x10^5), 10^-7 M, vehicle 118017.97±21116.00, p 0.889): 109607.00±18310.15 (0.889) pg/mL
IL-8 production in PMBC from patients with rheumatoid arthritis (IL-8; anti-CD3 (12.5 ng/ml) + anti-CD28 (1/3x10^5), 10^-8 M, vehicle 118017.97±21116.00, p 0.575): 121587.88±16117.25 (0.575) pg/mL
IL-8 production in PMBC from patients with rheumatoid arthritis (IL-8; medium, 10^-6 M, vehicle 57877.64±11143.52, p 0.208): 98012.08±8395.97 (0.208) pg/mL
IL-8 production in PMBC from patients with rheumatoid arthritis (IL-8; medium, 10^-7 M, vehicle 57877.64±11143.52, p 0.161): 96498.50±10784.62 (0.161) pg/mL
IL-8 production in PMBC from patients with rheumatoid arthritis (IL-8; medium, 10^-8 M, vehicle 57877.64±11143.52, p 0.123): 93977.67±9247.38 (0.123) pg/mL
IL-10 production in PMBC from patients with rheumatoid arthritis (IL-10 [2]; LPS (10µg/ml), 10^-6 M, vehicle 2388.64±300.00, p 0.069): 2787.12±416.91 (0.069) pg/mL
IL-10 production in PMBC from patients with rheumatoid arthritis (IL-10 [2]; LPS (10µg/ml), 10^-7 M, vehicle 2388.64±300.00, p 0.327): 2597.85±513.19 (0.327) pg/mL
IL-10 production in PMBC from patients with rheumatoid arthritis (IL-10 [2]; LPS (10µg/ml), 10^-8 M, vehicle 2388.64±300.00, p 0.025): 3000.00±400.00 (0.025) pg/mL
IL-10 production in PMBC from patients with rheumatoid arthritis (IL-10 [2]; anti-CD3 (12.5 ng/ml) + anti-CD28 (1/3x10^5), 10^-6 M, vehicle 836.39±189.09, p 0.484): 976.96±187.99 (0.484) pg/mL
IL-10 production in PMBC from patients with rheumatoid arthritis (IL-10 [2]; anti-CD3 (12.5 ng/ml) + anti-CD28 (1/3x10^5), 10^-7 M, vehicle 836.39±189.09, p 1.000): 805.41±141.23 (1.000) pg/mL
IL-10 production in PMBC from patients with rheumatoid arthritis (IL-10 [2]; anti-CD3 (12.5 ng/ml) + anti-CD28 (1/3x10^5), 10^-8 M, vehicle 836.39±189.09, p 0.674): 872.06±150.87 (0.674) pg/mL
IL-10 production in PMBC from patients with rheumatoid arthritis (IL-10 [2]; medium, 10^-6 M, vehicle 452.69±107.47, p 0.674): 682.50±113.65 (0.674) pg/mL
IL-10 production in PMBC from patients with rheumatoid arthritis (IL-10 [2]; medium, 10^-7 M, vehicle 452.69±107.47, p 0.401): 798.92±144.46 (0.401) pg/mL
IL-10 production in PMBC from patients with rheumatoid arthritis (IL-10 [2]; medium, 10^-8 M, vehicle 452.69±107.47, p 0.263): 468.14±65.80 (0.263) pg/mL
